Earlier results in patent publication US6045829A, “Nanocrystalline formulations of human immunodeficiency virus (HIV) protease inhibitors using cellulosic surface stabilizers” (Elan Pharma International Limited, priority 1997, dated 2000).

Test system: not given
Conditions: in vivo, po

**Q.** For `CC(C)c1nc(CN(C)C(=O)N[C@H](C(=O)N[C@@H](Cc2ccccc2)C[C@H](O)[C@H](Cc2ccccc2)NC(=O)OCc2cncs2)C(C)C)cs1` [ABT-538], which oral bioavailability is on record?
**A.** low oral bioavailability

**Q.** With `Cc1c(O)cccc1C(=O)N[C@@H](CSc1ccccc1)[C@H](O)CN1C[C@H]2CCCC[C@H]2C[C@H]1C(=O)NC(C)(C)C` [AG1343] as the compound, how does the oral bioavailability read?
**A.** low oral bioavailability

**Q.** For `Nc1cccc(CN2C(=O)N(Cc3cccc(N)c3)[C@H](Cc3ccccc3)[C@H](O)[C@@H](O)[C@H]2Cc2ccccc2)c1` [DMP-450], which oral bioavailability is on record?
**A.** low oral bioavailability

**Q.** Which oral bioavailability does the source give for `CC(C)(C)NC(=O)[C@@H]1CN(Cc2cccnc2)CCN1C[C@@H](O)C[C@@H](Cc1ccccc1)C(=O)N[C@H]1c2ccccc2C[C@H]1O` [MK-639, N-(2-(R)-hydroxy-1(S)-indanyl)-2(R)-phenylmethyl-4-(S)-hydroxy-5-(1-(4-(3-pyridylmethyl)-2(S)-N'-(t-butylcarboxamido)-piperazinyl))-pentaneamide] here?
**A.** low oral bioavailability

**Q.** With `CC(C)CN(C[C@@H](O)[C@H](Cc1ccccc1)NC(=O)O[C@H]1CCOC1)S(=O)(=O)c1ccc(N)cc1` [VX-478] as the compound, how does the oral bioavailability read?
**A.** low oral bioavailability

**Q.** With `CC(C)(C)NC(=O)[C@@H]1C[C@@H]2CCCC[C@@H]2CN1C[C@@H](O)[C@H](Cc1ccccc1)NC(=O)[C@H](CC(N)=O)NC(=O)c1ccc2ccccc2n1` [saquinavir] as the compound, how does the oral bioavailability read?
**A.** low oral bioavailability

Same assay, conditions: oral

**Q.** With `CSC[C@H](NC(=O)COc1cccc2cnccc12)C(=O)N[C@@H](Cc1ccccc1)[C@H](O)C(=O)N1CSC[C@H]1C(=O)NC(C)(C)C` [KNI-272] as the compound, how does the oral bioavailability read?
**A.** low oral bioavailability

**Q.** With `N#Cc1ccc(S(=O)(=O)Nc2cccc(C(c3c(O)c4c(oc3=O)CCCCCC4)C3CC3)c2)cc1` (stereo not shown) [U-103,017] as the compound, how does the oral bioavailability read?
**A.** low oral bioavailability

Test system: HIV reverse transcriptase (RT)
Conditions: in vivo

**Q.** With `O[C@H](CS)[C@H](O)CS` (racemic) [ddT, dithiothreitol] as the compound, how does the “effectiveness in treating HIV infection” value read?
**A.** only modestly effective

**Q.** Which “effectiveness in treating HIV infection” value does the source give for `O=c1[nH]cnc2c1ncn2[C@H]1CC[C@@H](CO)O1` [ddI, didanosine] here?
**A.** only modestly effective

Same assay, conditions: interfere with cellular enzymes similar to the HIV viral enzyme

**Q.** Which side effects does the source give for `O[C@H](CS)[C@H](O)CS` (racemic) [ddT, dithiothreitol] here?
**A.** severe side effects

**Q.** With `Cc1cn([C@H]2C[C@H](N=[N+]=[N-])[C@@H](CO)O2)c(=O)[nH]c1=O` [AZT, azidothymidine] as the compound, how does the side effects read?
**A.** severe side effects

**Q.** Which side effects does the source give for `O=c1[nH]cnc2c1ncn2[C@H]1CC[C@@H](CO)O1` [ddI, didanosine] here?
**A.** severe side effects
